According to ChEMBL document CHEMBL1201862, “PubChem BioAssay data set” (2004):
Active and inactive are the calls of the source.

Columns and labels:
HEK293 [1] = assay: inhibition of NOD1-driven NF-kB reporter – cell-based, luminescence, uHTS, primary screen (AID 1578); type: functional; conditions: Homo sapiens
HEK293 [2] = assay: cells; type: functional, cell-based; conditions: Homo sapiens
HEK293 [3] = assay: cells; type: functional, cell-based; conditions: Homo sapiens; remark: listed apart in the source
[4] = target: Nucleotide-binding oligomerization domain-containing protein 2 (Homo sapiens, UniProt Q9HC29); assay: inhibition of NOD2-driven NF-kB reporter – cell-based, luminescence, uHTS, HEK293 (AID 1566); type: functional
HEK293 [5] = assay: NOD2 signaling inhibitors in MDP-stimulated cells, cell-based, uHTS, luminescence (AID 2001); type: functional; conditions: Homo sapiens
HEK293 [6] = assay: cells; type: functional, cell-based; conditions: Homo sapiens; remark: listed apart in the source
[7] = target: T1, Calpain-2 catalytic subunit (Sus scrofa, UniProt P43367); assay: m-calpain protease blockers, concentration series – biochemical, fluorogenic peptide substrate, dose response (AID 1420); type: functional
T1 sequence (P43367 whole entry): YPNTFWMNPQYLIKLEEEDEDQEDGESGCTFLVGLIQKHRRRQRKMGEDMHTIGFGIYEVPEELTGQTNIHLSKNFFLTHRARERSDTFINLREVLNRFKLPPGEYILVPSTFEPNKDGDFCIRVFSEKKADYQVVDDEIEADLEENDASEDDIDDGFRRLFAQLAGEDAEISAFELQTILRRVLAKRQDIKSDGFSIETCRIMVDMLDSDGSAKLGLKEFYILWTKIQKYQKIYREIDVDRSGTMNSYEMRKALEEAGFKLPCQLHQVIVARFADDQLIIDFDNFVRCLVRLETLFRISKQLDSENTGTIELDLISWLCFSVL

[8] = target: T2, High affinity choline transporter 1 (Homo sapiens, UniProt Q9GZV3); assay: human choline transporter blockers, potency – cell-based, 5-point CRC, membrane potential dye, dose response (AID 504840); type: functional
T2 sequence (Q9GZV3 whole entry): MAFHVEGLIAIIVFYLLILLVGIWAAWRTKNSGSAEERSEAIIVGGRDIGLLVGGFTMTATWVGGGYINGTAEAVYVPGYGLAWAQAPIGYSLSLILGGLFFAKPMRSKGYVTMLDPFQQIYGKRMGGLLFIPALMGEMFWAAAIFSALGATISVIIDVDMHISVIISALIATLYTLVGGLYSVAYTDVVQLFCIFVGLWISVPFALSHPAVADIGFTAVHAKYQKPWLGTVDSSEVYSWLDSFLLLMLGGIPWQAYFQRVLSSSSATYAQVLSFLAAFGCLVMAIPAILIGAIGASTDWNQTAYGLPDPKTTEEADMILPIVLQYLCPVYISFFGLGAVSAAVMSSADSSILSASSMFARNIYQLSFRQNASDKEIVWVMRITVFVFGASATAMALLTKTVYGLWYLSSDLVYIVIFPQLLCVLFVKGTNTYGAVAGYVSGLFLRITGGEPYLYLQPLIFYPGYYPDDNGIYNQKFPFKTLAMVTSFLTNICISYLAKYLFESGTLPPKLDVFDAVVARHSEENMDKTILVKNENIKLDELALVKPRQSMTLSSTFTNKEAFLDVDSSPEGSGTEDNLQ

[9] = target: Glyceraldehyde-3-phosphate dehydrogenase (Homo sapiens, UniProt P04406)
[10] = target: T3, Alkaline phosphatase, tissue-nonspecific isozyme (Homo sapiens, UniProt P05186); assay: potency against alkaline phosphatase TNAP – biochemical, luminescent, dose response, SAR follow-up (AID 1056)
T3 sequence (P05186 whole entry): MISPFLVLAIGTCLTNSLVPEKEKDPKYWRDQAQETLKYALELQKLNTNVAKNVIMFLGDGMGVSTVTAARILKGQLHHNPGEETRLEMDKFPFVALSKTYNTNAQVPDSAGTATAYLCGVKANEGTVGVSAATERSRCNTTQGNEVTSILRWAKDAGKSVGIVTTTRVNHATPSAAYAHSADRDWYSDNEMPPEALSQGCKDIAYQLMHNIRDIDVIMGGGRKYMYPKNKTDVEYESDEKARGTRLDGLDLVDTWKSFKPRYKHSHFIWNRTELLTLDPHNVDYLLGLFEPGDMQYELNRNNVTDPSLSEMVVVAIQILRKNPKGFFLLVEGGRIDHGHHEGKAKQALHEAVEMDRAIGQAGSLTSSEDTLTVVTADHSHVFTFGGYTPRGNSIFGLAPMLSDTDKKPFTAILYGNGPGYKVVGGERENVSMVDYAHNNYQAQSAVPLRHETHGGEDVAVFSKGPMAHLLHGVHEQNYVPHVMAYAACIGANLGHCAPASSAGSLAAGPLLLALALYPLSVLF

[11] = target: Alkaline phosphatase, placental type (Homo sapiens, UniProt P05187); assay: human placental alkaline phosphatase inhibition – biochemical, luminescence, confirmation (AID 1512); type: functional
[12] = target: T4, Voltage-gated N-type calcium channel alpha-1B subunit/Amyloid beta A4 precursor protein-binding family A member 1 (Homo sapiens, UniProt Q00975+Q02410); type: protein assay
[13] = target: T4, Voltage-gated N-type calcium channel alpha-1B subunit/Amyloid beta A4 precursor protein-binding family A member 1; type: protein assay; remark: listed apart in the source
Genome polyprotein = Genome polyprotein (dengue virus type 2, UniProt P29990); assay: flavivirus cap methylation enzyme inhibition – biochemical, confirmation dose response, primary screen (AID 588689); type: functional
[14] = target: T5, Rac GTPase-activating protein 1 (Homo sapiens, UniProt Q9H0H5); assay: blockers of MgcRacGAP-driven Rac1 GTP hydrolysis – biochemical, ADP Hunter fluorescence, primary and confirmatory, confirmation (AID 624330); type: functional
T5 sequence (Q9H0H5 whole entry): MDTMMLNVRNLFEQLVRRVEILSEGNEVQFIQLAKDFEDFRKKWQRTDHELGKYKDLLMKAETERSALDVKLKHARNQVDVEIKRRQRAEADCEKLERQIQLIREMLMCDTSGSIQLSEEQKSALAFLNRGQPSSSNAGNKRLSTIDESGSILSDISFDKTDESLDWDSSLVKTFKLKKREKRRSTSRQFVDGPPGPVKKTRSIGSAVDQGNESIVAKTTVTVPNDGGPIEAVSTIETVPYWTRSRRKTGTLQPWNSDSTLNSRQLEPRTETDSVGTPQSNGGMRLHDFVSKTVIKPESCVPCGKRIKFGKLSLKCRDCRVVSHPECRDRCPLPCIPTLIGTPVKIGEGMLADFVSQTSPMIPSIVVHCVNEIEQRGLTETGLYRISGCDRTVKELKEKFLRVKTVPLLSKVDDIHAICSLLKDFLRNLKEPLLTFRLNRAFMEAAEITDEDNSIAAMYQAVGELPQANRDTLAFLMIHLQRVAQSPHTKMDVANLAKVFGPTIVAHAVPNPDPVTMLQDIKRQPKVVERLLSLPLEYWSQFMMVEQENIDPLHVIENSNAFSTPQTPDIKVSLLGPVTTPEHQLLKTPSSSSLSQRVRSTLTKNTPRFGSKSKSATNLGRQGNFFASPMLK

Cytochrome P450 2C19 = Cytochrome P450 2C19 (Homo sapiens, UniProt P33261); assay: Cytochrome panel assay with activity outcomes. Panel member name: p450-cyp2c19 Compounds with AC50 equal or less than 10 uM are considered active; type: functional; conditions: read-out: AC50
Cytochrome P450 3A4 = Cytochrome P450 3A4 (Homo sapiens, UniProt P08684);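 further: CYP3A4 tested as one member of a cytochrome P450 panel screen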
Nonstructural protein 1 = Nonstructural protein 1 (Influenza A virus, UniProt Q194T2); type: functional, Influenza A virus (A/California/07/2009(H1N1))
[15] = target: T6, Microphthalmia-associated transcription factor (Homo sapiens, UniProt O75030); assay: reducers of TRPM1 reporter luminescence, concentration series – cell-based, SK-MEL-5, cherry-picked, set 3, MITF inhibitor project, dose response (AID 493073); type: functional;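 further: SK-MEL-5 melanoma cells with luciferase driven by the MITF target TRPM1 promoter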
T6 sequence (O75030 whole entry): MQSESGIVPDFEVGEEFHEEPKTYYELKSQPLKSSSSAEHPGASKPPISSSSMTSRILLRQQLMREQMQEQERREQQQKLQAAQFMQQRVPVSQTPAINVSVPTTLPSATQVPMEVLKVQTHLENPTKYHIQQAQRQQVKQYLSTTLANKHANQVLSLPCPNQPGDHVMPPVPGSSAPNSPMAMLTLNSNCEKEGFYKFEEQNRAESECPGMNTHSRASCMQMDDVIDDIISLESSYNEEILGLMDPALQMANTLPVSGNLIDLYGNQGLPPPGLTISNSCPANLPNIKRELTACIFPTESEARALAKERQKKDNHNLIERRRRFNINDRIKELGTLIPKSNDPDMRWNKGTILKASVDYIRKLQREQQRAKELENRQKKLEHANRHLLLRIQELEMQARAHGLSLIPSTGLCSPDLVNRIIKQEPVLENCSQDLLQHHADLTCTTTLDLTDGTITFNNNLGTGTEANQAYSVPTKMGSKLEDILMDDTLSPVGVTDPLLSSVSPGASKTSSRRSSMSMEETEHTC

Cytochrome P450 2D6 = Cytochrome P450 2D6 (Homo sapiens, UniProt P10635);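 further: CYP2D6 member of a cytochrome P450 panel assay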
Cytochrome P450 2C9 = Cytochrome P450 2C9 (Homo sapiens, UniProt P11712)
Escherichia coli = assay: microbe, parasite or virus in culture

Chain of Alkaline phosphatase, placental type (P05187 whole entry): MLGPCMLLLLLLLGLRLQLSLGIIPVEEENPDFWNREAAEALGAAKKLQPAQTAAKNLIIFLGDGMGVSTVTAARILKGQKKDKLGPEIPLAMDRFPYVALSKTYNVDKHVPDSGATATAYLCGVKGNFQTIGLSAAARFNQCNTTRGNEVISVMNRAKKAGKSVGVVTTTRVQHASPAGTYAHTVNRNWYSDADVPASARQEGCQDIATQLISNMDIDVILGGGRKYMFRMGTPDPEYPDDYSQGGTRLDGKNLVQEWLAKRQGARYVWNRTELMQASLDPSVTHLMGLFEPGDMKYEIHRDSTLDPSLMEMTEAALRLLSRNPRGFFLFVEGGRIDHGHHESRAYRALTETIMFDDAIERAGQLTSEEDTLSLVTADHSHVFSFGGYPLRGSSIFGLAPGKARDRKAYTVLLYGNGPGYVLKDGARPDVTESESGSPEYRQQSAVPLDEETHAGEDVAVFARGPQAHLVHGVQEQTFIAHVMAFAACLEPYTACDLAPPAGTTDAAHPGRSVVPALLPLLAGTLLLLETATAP
T4 sequence (Q00975 whole entry): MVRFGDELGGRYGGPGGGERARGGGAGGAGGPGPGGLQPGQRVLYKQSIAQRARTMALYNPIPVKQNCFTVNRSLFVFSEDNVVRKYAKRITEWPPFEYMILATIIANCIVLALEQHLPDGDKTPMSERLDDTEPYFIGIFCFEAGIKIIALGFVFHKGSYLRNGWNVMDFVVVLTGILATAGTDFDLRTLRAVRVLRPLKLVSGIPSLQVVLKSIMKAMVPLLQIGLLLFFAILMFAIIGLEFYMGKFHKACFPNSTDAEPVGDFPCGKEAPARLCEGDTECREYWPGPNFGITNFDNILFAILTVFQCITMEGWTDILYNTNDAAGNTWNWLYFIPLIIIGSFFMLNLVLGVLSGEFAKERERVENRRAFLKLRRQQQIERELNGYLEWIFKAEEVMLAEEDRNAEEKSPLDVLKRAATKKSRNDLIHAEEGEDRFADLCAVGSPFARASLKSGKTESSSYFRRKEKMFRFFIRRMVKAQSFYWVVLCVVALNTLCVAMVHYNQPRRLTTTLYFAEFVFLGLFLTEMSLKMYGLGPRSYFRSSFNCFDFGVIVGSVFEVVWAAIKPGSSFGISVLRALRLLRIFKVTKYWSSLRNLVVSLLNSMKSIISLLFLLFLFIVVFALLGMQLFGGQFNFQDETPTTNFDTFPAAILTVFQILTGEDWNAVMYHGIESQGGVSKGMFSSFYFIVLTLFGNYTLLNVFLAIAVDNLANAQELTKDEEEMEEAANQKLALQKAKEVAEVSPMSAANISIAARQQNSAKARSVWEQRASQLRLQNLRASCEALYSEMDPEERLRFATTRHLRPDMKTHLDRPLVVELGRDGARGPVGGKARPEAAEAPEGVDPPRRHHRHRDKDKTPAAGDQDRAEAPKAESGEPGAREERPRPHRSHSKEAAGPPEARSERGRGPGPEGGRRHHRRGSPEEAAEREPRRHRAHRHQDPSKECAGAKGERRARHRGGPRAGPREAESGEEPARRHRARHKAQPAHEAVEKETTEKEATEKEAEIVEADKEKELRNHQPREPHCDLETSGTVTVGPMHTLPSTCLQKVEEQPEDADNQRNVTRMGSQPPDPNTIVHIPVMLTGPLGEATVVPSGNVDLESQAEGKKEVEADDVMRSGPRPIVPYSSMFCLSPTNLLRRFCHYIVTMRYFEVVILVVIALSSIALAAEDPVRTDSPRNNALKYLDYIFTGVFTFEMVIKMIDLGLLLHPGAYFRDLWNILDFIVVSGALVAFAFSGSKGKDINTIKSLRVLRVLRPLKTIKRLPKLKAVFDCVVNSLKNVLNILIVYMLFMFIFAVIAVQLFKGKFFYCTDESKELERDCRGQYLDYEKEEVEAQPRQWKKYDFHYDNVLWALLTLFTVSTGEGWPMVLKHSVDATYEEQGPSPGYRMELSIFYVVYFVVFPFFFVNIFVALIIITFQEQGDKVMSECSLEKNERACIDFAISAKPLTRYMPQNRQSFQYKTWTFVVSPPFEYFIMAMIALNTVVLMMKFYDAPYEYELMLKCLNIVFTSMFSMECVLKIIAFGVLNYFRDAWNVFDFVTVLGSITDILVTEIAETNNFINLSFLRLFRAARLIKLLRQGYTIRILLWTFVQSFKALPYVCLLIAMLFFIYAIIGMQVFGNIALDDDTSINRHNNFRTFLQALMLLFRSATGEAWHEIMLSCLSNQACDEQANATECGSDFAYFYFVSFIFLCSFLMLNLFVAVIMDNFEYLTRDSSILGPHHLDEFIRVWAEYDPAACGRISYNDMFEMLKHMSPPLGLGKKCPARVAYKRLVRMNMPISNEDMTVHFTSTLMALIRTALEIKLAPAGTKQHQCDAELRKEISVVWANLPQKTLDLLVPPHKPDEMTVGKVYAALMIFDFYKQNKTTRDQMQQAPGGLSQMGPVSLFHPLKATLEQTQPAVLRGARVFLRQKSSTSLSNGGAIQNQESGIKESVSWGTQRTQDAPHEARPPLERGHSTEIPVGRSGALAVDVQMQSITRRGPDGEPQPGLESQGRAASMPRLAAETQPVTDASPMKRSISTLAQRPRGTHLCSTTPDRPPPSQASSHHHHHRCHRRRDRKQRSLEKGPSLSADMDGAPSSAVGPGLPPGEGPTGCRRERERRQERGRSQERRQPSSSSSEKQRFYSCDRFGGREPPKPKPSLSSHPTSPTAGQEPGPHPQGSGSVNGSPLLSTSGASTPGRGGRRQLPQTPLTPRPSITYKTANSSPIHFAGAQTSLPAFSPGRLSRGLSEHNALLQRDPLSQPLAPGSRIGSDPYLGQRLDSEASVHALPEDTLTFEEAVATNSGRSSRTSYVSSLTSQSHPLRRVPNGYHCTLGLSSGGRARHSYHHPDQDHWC
T4 sequence (Q02410 whole entry): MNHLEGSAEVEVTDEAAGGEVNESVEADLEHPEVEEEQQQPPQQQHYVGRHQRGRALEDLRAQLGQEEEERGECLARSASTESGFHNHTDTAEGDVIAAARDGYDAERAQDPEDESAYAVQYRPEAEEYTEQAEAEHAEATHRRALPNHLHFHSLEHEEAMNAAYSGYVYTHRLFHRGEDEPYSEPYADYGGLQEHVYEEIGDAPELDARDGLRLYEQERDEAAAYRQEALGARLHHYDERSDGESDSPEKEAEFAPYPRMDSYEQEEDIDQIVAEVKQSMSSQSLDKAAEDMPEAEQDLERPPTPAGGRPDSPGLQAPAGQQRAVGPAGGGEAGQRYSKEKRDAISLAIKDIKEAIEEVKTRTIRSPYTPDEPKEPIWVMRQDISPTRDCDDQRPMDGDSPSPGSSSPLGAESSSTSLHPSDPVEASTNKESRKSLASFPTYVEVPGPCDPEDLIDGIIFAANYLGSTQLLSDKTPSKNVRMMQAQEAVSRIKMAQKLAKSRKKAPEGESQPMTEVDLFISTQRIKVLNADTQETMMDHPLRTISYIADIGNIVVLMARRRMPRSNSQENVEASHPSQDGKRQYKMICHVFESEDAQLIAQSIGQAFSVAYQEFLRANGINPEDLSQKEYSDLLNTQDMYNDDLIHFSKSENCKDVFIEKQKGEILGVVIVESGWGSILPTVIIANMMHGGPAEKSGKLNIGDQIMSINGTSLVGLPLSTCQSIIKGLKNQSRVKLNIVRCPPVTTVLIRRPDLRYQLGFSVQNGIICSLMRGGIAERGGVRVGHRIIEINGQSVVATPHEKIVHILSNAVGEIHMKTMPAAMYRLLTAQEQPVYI
Chain of Cytochrome P450 3A4 (P08684 whole entry): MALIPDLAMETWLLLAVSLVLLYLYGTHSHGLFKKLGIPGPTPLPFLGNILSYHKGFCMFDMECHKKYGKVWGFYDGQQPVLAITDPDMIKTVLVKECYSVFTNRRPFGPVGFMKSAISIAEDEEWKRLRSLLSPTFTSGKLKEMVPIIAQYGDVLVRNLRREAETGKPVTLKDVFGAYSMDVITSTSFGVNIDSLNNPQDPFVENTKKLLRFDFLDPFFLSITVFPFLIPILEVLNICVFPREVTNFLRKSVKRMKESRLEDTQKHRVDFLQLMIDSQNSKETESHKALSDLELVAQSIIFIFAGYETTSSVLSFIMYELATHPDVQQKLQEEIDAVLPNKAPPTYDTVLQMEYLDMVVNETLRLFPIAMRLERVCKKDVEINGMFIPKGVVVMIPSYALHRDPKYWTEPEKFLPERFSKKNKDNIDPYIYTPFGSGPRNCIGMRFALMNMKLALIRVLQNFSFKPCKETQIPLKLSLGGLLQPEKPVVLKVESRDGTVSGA
Chain of Glyceraldehyde-3-phosphate dehydrogenase (P04406 whole entry): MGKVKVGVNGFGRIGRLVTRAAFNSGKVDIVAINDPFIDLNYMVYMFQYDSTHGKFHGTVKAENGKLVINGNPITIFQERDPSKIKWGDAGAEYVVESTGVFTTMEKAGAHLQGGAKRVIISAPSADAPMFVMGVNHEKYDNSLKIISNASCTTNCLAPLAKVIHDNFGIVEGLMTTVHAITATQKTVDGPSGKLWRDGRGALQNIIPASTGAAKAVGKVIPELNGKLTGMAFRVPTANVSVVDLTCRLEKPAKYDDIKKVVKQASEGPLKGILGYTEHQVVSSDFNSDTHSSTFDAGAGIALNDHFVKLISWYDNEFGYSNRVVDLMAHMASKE
Chain of Nonstructural protein 1 (Q194T2 whole entry): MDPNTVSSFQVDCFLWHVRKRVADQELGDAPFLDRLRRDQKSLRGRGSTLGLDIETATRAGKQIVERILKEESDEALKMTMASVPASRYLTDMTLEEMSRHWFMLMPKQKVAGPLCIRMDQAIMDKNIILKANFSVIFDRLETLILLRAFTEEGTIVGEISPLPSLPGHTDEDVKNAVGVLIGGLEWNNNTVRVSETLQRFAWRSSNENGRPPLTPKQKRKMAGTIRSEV

## COc1cc([N+](=O)[O-])ccc1-c1ccc(/C=N/NC(=O)c2ccccc2O)o1
HEK293 [1]
  EC50: > 20 µM (inactive)
HEK293 [2]
  IC50: 19.9 µM (active)
HEK293 [3]
  IC50: > 20 µM (inactive)
[4]
  EC50: > 20 µM (inactive)
HEK293 [5]
  IC50: 14.1 µM (inactive)
HEK293 [6]
  IC50: > 20 µM (inactive)
[7]
  IC50: 8.3 µM (not active)

## CC(C)c1ccc(NC(=O)CSc2nc(=O)n(CCCN3CCOCC3)c3c2CCC3)cc1
[8]
  IC50: 13.8 µM (active)

## O=S(=O)(Nc1cccnc1)c1cc(Cl)ccc1F
[9]
  IC50: > 100 µM (not active)
[10]
  IC50: 46.5 µM (active)

## CCCCN(C)C(=O)NC1(C(F)(F)F)Oc2ccccc2O1
[11]
  IC50: > 100 µM (inactive)
[10]
  IC50: > 100 µM (inactive)

## O=C(O)CCCNC(=O)/C=C/c1ccco1
[12]
  IC50: 17.1 µM (active)
[13]
  IC50: 13.6 µM (active)
Genome polyprotein
  IC50: > 100 µM (active)
[14]
  IC50: 151 µM (active)

## O=S(=O)(Nc1ccccc1Br)c1cnc2ccccc2c1
[9]
  IC50: > 10 µM (inconclusive)
[10]
  IC50: > 10 µM (inactive)

## CCOC(=O)Cn1nc(C)n(-c2ccc(C)cc2)c1=O
Cytochrome P450 2C19
  AC50: 28.2 µM (inconclusive)
Cytochrome P450 3A4
  AC50: inconclusive

## COc1ccccc1NC(=O)CSc1nn2c(=O)c(C)nnc2s1
Nonstructural protein 1
  IC50: 16.1 µM (active)

## CN(C(=O)/C=C/c1ccc([N+](=O)[O-])s1)c1ccccc1
[15]
  AC50: 9.11 µM (active)

## CCOC(=O)N1CCN(C(=O)c2ccc3nc(N4CCC(C)CC4)sc3c2)CC1
Cytochrome P450 2C19
  AC50: 11.2 µM (inconclusive)
Cytochrome P450 2D6
  AC50: 28.2 µM (inconclusive)
Cytochrome P450 3A4
  AC50: inconclusive

## O=C(NC1(C(F)(F)F)Oc2ccc(Cl)cc2O1)N1CCC2(CC1)OCCO2 (configuration not stated)
[11]
  IC50: 9.93 µM (active)

## COc1ccc(NC(=O)CCNS(=O)(=O)c2ccc3c(c2)c(=O)n(C)c(=O)n3C)cc1
Cytochrome P450 3A4
  AC50: inconclusive
Cytochrome P450 2C9
  AC50: inconclusive

## Cc1cc(NS(=O)(=O)c2ccc(NC(=O)COc3c(C)cc(Br)cc3C)cc2)no1
[8]
  IC50: 13.2 µM (active)

## Cc1cccc(C)c1OCc1nnc2c3cnn(-c4ccccc4)c3ncn12
[9]
  IC50: > 100 µM (not active)
[11]
  IC50: > 100 µM (inactive)
[10]
  IC50: > 100 µM (inactive)

## CCOC(=O)CCc1ccc(NC(=O)/C=C/c2ccc([N+](=O)[O-])o2)cc1
[15]
  AC50: 6.83 µM (active)

## NC(=O)c1c(NC(=O)C(=O)N2CCOCC2)sc2c1CCC2
Escherichia coli
  AC50: 23.9 µM (active)

## O=C(CSc1nc2ccccc2s1)c1ccc(O)c(O)c1
[11]
  IC50: 3.42 µM (active)
[10]
  IC50: 3.03 µM (active)

## CCOC(=O)N1CCN(C(=O)CCCn2c(=S)[nH]c3ccsc3c2=O)CC1
[8]
  IC50: 12.3 µM (active)

## NS(=O)(=O)c1ccc(CCNC(=O)/C=C/c2ccc([N+](=O)[O-])cc2)cc1
[12]
  IC50: 9.65 µM (active)
[13]
  IC50: > 50 µM (inactive)

## O=C(NCCO)c1cc(-c2cc(F)c(Cl)cc2Cl)n[nH]1
[9]
  IC50: > 100 µM (not active)
[11]
  IC50: > 25 µM (inactive)

## COC(=O)c1cc(C(=O)c2ccc(Cl)cc2Cl)cn1C
Cytochrome P450 3A4
  AC50: inconclusive
Cytochrome P450 2C9
  AC50: inconclusive

## Nc1ccccc1C(=O)NCC1(c2ccccc2)CCCC1
Escherichia coli
  AC50: 113 µM (active)

## C/C=C\C(=O)N(CC)c1ccccc1C
Cytochrome P450 3A4
  AC50: inconclusive

## COC1=C(Nc2ccc(C)cc2)C(=O)c2ccccc2C1=O
Nonstructural protein 1
  IC50: 10 µM (active)

## Nc1nc(=O)n([C@H]2C[C@H](O)[C@@H](CO)O2)cc1F
Escherichia coli
  AC50: 33.8 µM (active)
